Legend:
THP-1 cells [1] = experiment: Cytotoxic activity assay in THP-1 cells; type: cell-based; conditions: 48 h, at the tested concentrations
Description: FIG. 1. Cytotoxic activities of the compound in THP-1 cells. The cells were treated with the test substance at the indicated concentrations for 48 h.
Cytotoxic activity assays. THP-1 cell was seeded in 96-well plates at a density of 5×10^4 cells/well and NIH/3T3 cells were seeded in 96-well plates at a density of 5×10^3 cells/well both incubated overnight at 37° C. in a humidified atmosphere of 5% CO2. Subsequently, cells were treated with test compounds at the indicated concentrations and DMSO as control for […]. The test compounds were dissolved in DMSO (stock solution) and diluted with medium to a final DMSO concentration of 0.2%. MTT solution (50 μL, 7 mg/mL in PBS) was added to each well and plates were incubated for an additional 2 h. Next, the medium was removed and 100 μL of DMSO was added to each well to dissolve the formazan crystals that formed. The absorbance was measured at 590 nm using a spectrophotometric ELISA plate reader (SpectraMax® i3, Molecular Devices, CA, USA). Samples were considered nontoxic for the THP-1 and NIH/3T3 cell line when cell viability was ≥90%.
To analyse the cytotoxic activities of the test compound, THP-1 cells were incubated with DOXA-1 and DOXA-2 for 48 h and cytotoxicity was measured by fluorescence microscopy using an Incuyte microscope.

THP-1 cells [2] = experiment: Cellular antioxidant activity assay (TBHP-induced ROS, DCFH-DA) in THP-1 cells; type: cell-based; conditions: Homo sapiens, THP-1 cell, 0.4 mM TBHP, read-out: antioxidant activity IC50 (TBHP-induced intracellular ROS)
Description: (§1) FIG. 3. Inhibition of TBHP-induced ROS production in THP-1 and NIH-3T3 cells. ROS production was evaluated by fluorescent probe DCFH-DA assay.
(§2) Cellular antioxidant activity assays. The intracellular accumulation of ROS is detected by fluorimetry using […] (DCFH-DA). The THP-1 cell (1×10^5 cells/well) are cultured in a 96-well black plate in DMEM supplemented with 10% FBS; culture medium is renewed when the cells reached 80% confluence. For inhibition, the cells are pre-incubated with the test substances for 30 min and treated with 0.4 mM Terc-butyl-hydroperoxide (TBHP). After 3 h the cells are incubated with 10 μM DCFH-DA in the culture medium at 37° C. for 30 min.
(§3) The acetate groups on DCFH-DA are removed by an intracellular esterase, trapping the probe inside the THP-1 cell. Then, the cells are washed with PBS at 37° C. and the production of ROS measured by changes in fluorescence due to the intracellular accumulation of DCF caused by the oxidation of DCFH. Intracellular ROS, as indicated by DCF fluorescence is detected using the Incucyte FLR software; the data are analyzed by the total green object integrated intensity (GCU×μm^2×well) of the imaging system IncuCyte HD (Essen BioScience).
(§4) In both cases the intracellular levels of ROS induced by TBHP are reduced (FIG. 3).

NIH/3T3 cells = experiment: Cellular antioxidant activity assay (TBHP-induced ROS, DCFH-DA) in NIH/3T3 cells; type: cell-based; conditions: Mus musculus, NIH3T3, NIH/3T3 cell, read-out: antioxidant activity IC50 (TBHP-induced intracellular ROS)
Description: as §1, §2, §3, §4

TNF-α [3] = experiment: TNF-α activity assay (ELISA) in THP-1 cells; type: cell-based; conditions: THP-1 cell; read-out: inhibition of TNF-α production IC50
Description: (§5) FIG. 4. Inhibition of TNF-α production in THP-1 and NIH/3T3 cells.
(§6) TNF-α activity assays. The protein expression levels of TNF-α were measured by using an enzyme-linked immunosorbent assay (ELISA) kit according to the manufacturer's instructions (Diaclone). Absorbance was read at 450 nm on a spectrophotometric ELISA plate reader (Anthos 2020, Version 2.0.5, Biochrom Ltd., UK). The percentage of TNF-α inhibition was calculated from the ratio between the observed TNF-α amount secreted by treated cells (nM) and the baseline secretion of TNF-α (nM). Dexamethasone (Sigma-Aldrich; 50-02-2), was used as positive control (0.01 μM). Results were normalized to the solvent control DMSO (0.1%).

TNF-α [4] = experiment: TNF-α activity assay (ELISA) in NIH/3T3 cells; type: cell-based; conditions: NIH/3T3 cell; read-out: inhibition of TNF-α production IC50
Description: as §5, §6

NF-ηB [5] = experiment: NF-ηB activity assay in THP-1 cells; type: cell-based; conditions: Homo sapiens; THP-1 cell; read-out: inhibition of NF-ηB production IC50
Description: (§7) FIG. 5. Inhibition of NF-ηB production in THP-1 and NIH/3T3 cells.
(§8) NF-ηB activity assays. The NIH/3T3-KBF-Luc cells has been stably transfected with the plasmid KBF-Luc plasmid, which contains three copies of NF-ηB binding site (from major histocompatibility complex promoter), fused to a minimal simian virus 40 promoter driving the luciferase gene. Cells (1×10^4 for NIH/3T3-KBF-Luc) are seeded the day before the assay on 96-well plate. Then the cells are treated with the test substances for 15 min and then stimulated with 30 ng/mL TNF-α. After 6 h, the cells are washed twice with PBS and lysed in 50 μL lysis buffer containing 25 mM Tris-phosphate (pH 7.8), 8 mM MgCl2, 1 mM DTT, 1% Triton X-100, and 7% glycerol during 15 min at RT in a horizontal shaker. Luciferase activity is measured using a GloMax 96 microplate luminometer (Promega) following the instructions of the luciferase assay kit (Promega, Madison, WI, USA). The RLU is calculated and the results are expressed as percentage of inhibition of NF-ηB activity induced by TNF-α (100% activation). The experiments for each concentration of the test items will be done in triplicate wells.

NF-ηB [6] = experiment: NF-ηB activity assay (KBF-Luc luciferase reporter) in NIH/3T3 cells; type: cell-based; conditions: Mus musculus, NIH3T3; NIH/3T3 cell; read-out: inhibition of NF-ηB production IC50
Description: as §7, §8

STAT3 = STAT3 activity assay (HeLa-STAT3-Luc luciferase reporter, IFNγ-induced); type: cell-based; conditions: HeLa-STAT3-Luc cells, IFNγ 25 U/mL, 6 h; read-out: inhibition of IFNγ-induced STAT3 activation IC50
Description: FIG. 6. DOXA-1 and DOXA-2 inhibits IFNγ-induced STAT3 activation. HeLa-STAT3-Luc cells (15×10^3 cells/mL) were preincubated with increasing concentrations of the compound and treated with IFNγ (25 U/mL) for 6 h. Luciferase activity was measured in the cell lysates with the luciferase assay kit (Promega, USA) and using a GloMax 96 microplate luminometer
STAT3 activity assay. The HeLa-STAT3-luc cells have been stably transfected with the plasmid 4×M67 pTATA TK-Luc. Cells (15×10^3 cells/mL) are seeded 96-well plate the day before the assay. Then the cells are treated with the compound for 15 min and then stimulated with IFN-γ 25 IU/mL. After 6 h, the cells are washed twice with PBS and lysed in 50 μL lysis buffer containing 25 mM Tris-phosphate (pH 7.8), 8 mM MgCl2, 1 mM DTT, 1% Triton X-100, and 7% glycerol during 15 min at RT in a horizontal shaker. Luciferase activity was measured using GloMax 96 microplate luminometer (Promega) following the instructions of the luciferase assay kit (Promega, Madison, WI, USA). The RLU is calculated and the results are expressed as percentage of inhibition of STAT3 activity induced by IFN-γ (100% activation). The experiments for each concentration of the test items will be done in triplicate wells.

HIF-1α = HIF-1α activity assay (NIH/3T3-EPO-Luc luciferase reporter, DFX-induced); type: cell-based; conditions: 6 h, read-out: inhibition of DFX-induced activation of EPO-Luc (HIF-1α stabilization) IC50
Description: FIG. 7. Inhibitions the HIF-1α pathway. NIH/3T3-EPO-Luc cells (10×10^4 cells/mL) were preincubated with increasing concentrations of the compound or the hypoximimetic (Desferrioxamine) DFX for 6 h. Luciferase activity was measured in the cell lysates and results are represented as the percentage of inhibition considering 100% the value of DFX-induced HIF-1α pathway activation.
HIF-1α activity assay. The NIH/3T3-EPO-luc cells have been stably transfected with the plasmid Epo-Luc plasmid. The EPO-Hypoxia Response Element (HRE)-luciferase reporter plasmid contains three copies of the HRE consensus sequence from the promoter of the erythropoietin gene in the pGL3 vector. Cells (1×10^4 for NIH/3T3-EPO-luc) are seeded the day before the assay. The next day, the cells are stimulated either with the compound or Desferrioxamine (DFX) 150 μM as a positive control. After 6 hours of stimulation the cells are lysed in 25 mM Tris-phosphate pH 7.8, 8 mM MgCl2, 1 mM DTT, 1% Triton X-100, and 7% glycerol during 15 min at RT in a horizontal shaker. Luciferase activity is measured using a GloMax 96 microplate luminometer (Promega) following the instructions of the luciferase assay kit (Promega, Madison, WI, USA). The RLU is calculated and the results are expressed as percentage of inhibition induction/inhibition of EPO-luc activity. […]

tyrosinase = target: T1, tyrosinase (Mus musculus, UniProt P11344); experiment: Tyrosinase activity assay in B16-F10 melanoma cells; type: cell-based; conditions: 72 h treatment, read-out: inhibition of melanin synthesis (tyrosinase activity assay) IC50
T1 construct: To measure the tyrosinase activity of the cells, the B16-F10 cells treated for 3 days; endogenous in cells; host or cells: B16-F10 melanoma cells
T1 sequence (P11344 19-533): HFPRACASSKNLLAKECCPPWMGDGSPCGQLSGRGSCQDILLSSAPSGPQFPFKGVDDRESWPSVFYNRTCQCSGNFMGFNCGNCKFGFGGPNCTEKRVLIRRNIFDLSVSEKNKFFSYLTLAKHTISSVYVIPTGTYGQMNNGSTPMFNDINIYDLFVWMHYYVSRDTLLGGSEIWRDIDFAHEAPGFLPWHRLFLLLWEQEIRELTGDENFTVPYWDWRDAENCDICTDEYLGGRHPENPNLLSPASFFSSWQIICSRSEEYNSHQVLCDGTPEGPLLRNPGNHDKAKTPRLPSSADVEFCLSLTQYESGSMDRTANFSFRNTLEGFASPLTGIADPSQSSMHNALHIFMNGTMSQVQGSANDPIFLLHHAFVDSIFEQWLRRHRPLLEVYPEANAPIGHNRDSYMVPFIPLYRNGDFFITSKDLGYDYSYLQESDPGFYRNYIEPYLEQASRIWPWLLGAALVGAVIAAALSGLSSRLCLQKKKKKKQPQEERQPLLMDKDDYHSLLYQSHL
Description: FIG. 8. Effect of DOXA-1 and DOXA-2 on tyrosinase activity in B16-F10 melanoma cells. Tyrosinase activity assessment was performed as described in Methods. Briefly, cells were treated with the doses indicated of test substances or Kojic Acid as a positive control for 72 h. To determine the tyrosinase activity cells were lysed and the protein extracts were incubated with L-DOPA (a precursor of melanin) at 37° C. during 2 h and the activity was measured at 485 nm. Results are represented as percentage relative to untreated cells (control).
Tyrosinase activity assay. To measure the tyrosinase activity of the cells, the B16-F10 cells treated for 3 days with several doses of the compound is lysed by incubation at 4° C. for 30 min in lysis buffer (20 mM sodium phosphate, pH 6.8, 1% Triton X-100, 1 mM PMSF, 1 mM EDTA) containing protease inhibitors cocktail. The lysates are centrifuged at 15,000× g for 10 min to obtain the supernatant as the source of tyrosinase. The reaction mixture contained 20 mM phosphate buffer, pH 6.8, 1.25 mM L-DOPA (Sigma-Aldrich). After incubation at 37° C. for 2 h, dopachrome formation is monitored by measuring absorbance at a wavelength of 475 nm in a microplatereader (TECAN). Kojic acid 2 mM is used as a positive control.

[7] = Total antioxidant activity assay (DPPH free radical, cell-free); type: biochemical; conditions: Trolox 200 μM as positive control
Description: FIG. 2. Antioxidant activity of compound. The percentage of antioxidant activity of each extract was assessed by DPPH free radical assay and compared to the standard Trolox (92.08% of antioxidant activity).
Total antioxidant activity assay. […] DPPH (1,1-Diphenyl-2-picrylhydrazine) is a purple coloured stable free radical that is reduced to the yellow-coloured diphenylpicrylhydrazine. In a volume of 1 mL of methanol the test samples are mixed with DPPH 0.125 mM. Trolox (200 μM) is included as a positive control. After 30 min of incubation at room temperature in the dark the absorbance measurements are read at 517 nm using Thermo Scientific Genesys 10 uv scanning spectrophotometer. Lower absorbance of the reaction mixtures indicated higher free radical-scavenging activity. DPPH radical-scavenging activity is calculated according to the following formula: % Antioxidant activity=[(AC−AS)/AC]×100
Where Ac (control) is the absorbance of the control reaction (DPPH) and As (sample) is the absorbance of DPPH and sample.

| Structure (SMILES) | cytotoxicity against THP-1 cell (THP-1 cells [1]) | IC50 (THP-1 cells [2]) | IC50 (NIH/3T3 cells) | IC50 (TNF-α [3]) | IC50 (TNF-α [4]) | IC50 (NF-ηB [5]) | IC50 (NF-ηB [6]) | IC50 (STAT3) | IC50 (HIF-1α) | IC50 (tyrosinase) | percentage of antioxidant activity (DPPH), standard [7] |
| --- | --- | --- | --- | --- | --- | --- | --- | --- | --- | --- | --- |
| CCCCCC1=NN(C(=O)CCOC(=O)CCC(=O)O)OC(CCCCC)C1 (stereo not drawn) [DOXA-1, Doxadiazine-1] | no cytotoxicity | 8.15 nM | 3330 nM | 32.5 nM | 17.4 nM | 63.6 nM | 67.7 nM | 3.09 nM | 12.4 nM | 18 nM | – |
| CCCCCC1=NN(C(=O)CCOC(C)=O)OC(CCCCC)C1 (stereo not drawn) [DOXA-2, Doxadiazine-2] | no cytotoxicity | 3.44 nM | 2.23 nM | 3.47 nM | 1.58 nM | 5.18 nM | 2.41 nM | 0.14 nM | 5.07 nM | 8.64 nM | – |
| Cc1c(C)c2c(c(C)c1O)CCC(C)(C(=O)O)O2 (stereo not drawn) [Trolox, reference compound] | – | – | – | – | – | – | – | – | – | – | 92.08% |

Reference: US12325692B2, “Uses of doxadiazines compounds” (HORITZONTS TECNOLOGICS HUNGARY KORLÁTOLT FELELOSSÉGU …, priority 2019, dated 2025)
